{"source": "paper PMC9578143", "about": "“Small-Molecule Ebselen Binds to YTHDF Proteins Interfering with the Recognition of N^6-Methyladenosine-Modified RNAs” (ACS Pharmacology & Translational Science, 2022)", "key": {"[1]": {"system": "m6A-mRNAs (CREBBP, YTHDF2, GATA2, HNRNPF) in PC-3 cells", "assay": "m6A mRNA stability measurement with actinomycin D", "format": "cell-based, human", "conditions": "4 h co-treatment with actinomycin D, versus DMSO, listed as ebselen", "method": "PC-3 cells were plated on a six-well dish. At 70–80% confluency, cells were treated with […] actinomycin D or vehicle (DMSO) to inhibit transcription in combination with 50 μM ebselen for 4 h before collection. As a control, cells were treated with actinomycin D or vehicle (DMSO) for 4 h. Total RNA was isolated from cells using TRIzol according to the manufacturer’s instructions. For each condition, the same amount of total RNA was reverse-transcribed to cDNA (2 μg) using the SuperScript IV First-Strand kit. Oligo-dT primers were used during the cDNA synthesis step. This allowed us to selectively convert to cDNA the amount of intact RNA still present in cells upon actinomycin D treatment while avoiding the conversion of fragmented RNA to cDNA. qRT-PCR experiments were performed in duplicates and normalized on a stable mRNA, GAPDH."}, "YTHDF1 in HEK293T cells": {"biological_target": "T1, YTHDF1 in HEK293T cells (Homo sapiens, UniProt Q9BYJ9)", "T1 construct": "endogenous in cells; host or cells: HEK293T", "T1 sequence (Q9BYJ9 1-559)": "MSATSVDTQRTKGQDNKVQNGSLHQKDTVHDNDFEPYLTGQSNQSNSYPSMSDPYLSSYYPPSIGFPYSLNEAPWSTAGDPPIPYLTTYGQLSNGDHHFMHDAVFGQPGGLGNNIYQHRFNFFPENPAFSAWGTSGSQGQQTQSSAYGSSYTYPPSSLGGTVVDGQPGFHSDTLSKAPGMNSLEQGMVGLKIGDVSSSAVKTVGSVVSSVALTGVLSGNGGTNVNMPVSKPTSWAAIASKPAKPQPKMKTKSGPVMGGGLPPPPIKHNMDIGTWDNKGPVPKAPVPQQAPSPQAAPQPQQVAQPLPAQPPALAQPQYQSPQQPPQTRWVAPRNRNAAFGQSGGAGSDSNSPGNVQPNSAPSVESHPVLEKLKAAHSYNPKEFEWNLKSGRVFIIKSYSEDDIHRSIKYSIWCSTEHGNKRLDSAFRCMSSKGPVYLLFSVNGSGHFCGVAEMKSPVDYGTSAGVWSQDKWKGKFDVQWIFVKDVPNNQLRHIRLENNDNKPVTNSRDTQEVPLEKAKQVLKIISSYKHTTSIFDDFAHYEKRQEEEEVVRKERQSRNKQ", "assay": "Cellular thermal shift assay (CETSA)", "format": "cell-based", "conditions": "50 μM, 3 h, versus DMSO, listed as Ebselen", "method": "HEK293T cells were seeded on 100 mm cell culture plate/s and allowed to adhere overnight. At 80% of confluency, cells were treated with 50 μM ebselen or DMSO as a control and incubated for 3 h at 37 °C in the CO2 incubator. Cells were centrifuged and resuspended in PBS and the protease inhibitor, at a concentration of (0.5–1) × 10^6 cells /100 μL of suspension. Lysates were divided into 9–10 aliquots of 100 μL into 0.2 mL microcentrifuge tubes and incubated at a temperature gradient on a PCR machine for 3 min. After incubation, lysates were frozen and thawed five times in dry ice and at 27 °C for 3 min each. All tubes were then centrifuged at 4 °C for 20 min at 12,000 rpm. Supernatants were then collected and transferred to clean tubes with a loading buffer 5×, heated for 10 min at 95 °C, and detected with Western Blot. The blot was then plotted with a YTHDF1 (Proteintech, 17479-1-AP) and actin (Cell Signaling, 12620S) primary antibody and subsequently with anti-Rabbit HRP (Santa Cruz, sc-2357) and anti-mouse HRP (Thermo Fisher, 61-6520). Chemiluminescent detection was performed using Amersham ECL Prime (GE Healthcare)."}, "[2]": {"system": "YTHDF1-3, ALKBH5 and METTL3 in PC-3 cells", "assay": "Western blot of the epitranscriptome apparatus", "format": "cell-based, human", "conditions": "PC-3 cells, 24, 48 and 72 h, 10, 25, 50 μM; listed as ebselen", "method": "Supplementary Figure 4. Protein level of the epitranscriptome apparatus and m6A level in PC-3 cells. (A) Representative western blot of YTHDF1-3, ALKBH5 and METTL3 in PC-3 cells after 24, 48 and 72 hours of ebselen treatment at three doses, 10, 25, 50 µM. (B) Quantification of the relative changes of YTHDF1-3, ALKBH5 and METTL3 in PC-3 cells after 24, 48 and 72 hours of ebselen treatment at three doses, 10, 25, 50 µM. […] Three biological replicates were performed. (C) Quantitative real-time PCR of YTHDF1-3, ALKBH5 and METTL3 in PC-3 cells after 24 hours of ebselen treatment at 10 µM.\nSupplementary Figure 5. Caption: 2F o-Fc map (blue) is contoured at 1s for Ebselen and Cys412 side chain. The selenium anomalous map is contoured at 3.5σ and shown in orange.\n(1 picture or pasted object on this page, not shown here)"}, "YTHDF1 domain": {"biological_target": "T2, YTHDF1 domain (Homo sapiens, UniProt Q9BYJ9)", "T2 construct": "The human YTHDF1 YTH domain (amino acids 365–554, PDB: 4RCJ); host or cells: E. coli BL21(DE3)", "T2 sequence (Q9BYJ9 365-554)": "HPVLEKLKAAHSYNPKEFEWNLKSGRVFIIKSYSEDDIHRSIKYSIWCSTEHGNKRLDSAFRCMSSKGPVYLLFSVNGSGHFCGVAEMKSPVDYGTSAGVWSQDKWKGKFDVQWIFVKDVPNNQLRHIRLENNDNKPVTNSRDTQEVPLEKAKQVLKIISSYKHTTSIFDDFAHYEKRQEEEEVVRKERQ", "assay": "High-throughput screen, tryptophan quenching, Z-score", "format": "binding", "conditions": "5 μM protein, compounds at 10 μM", "method": "A Z factor of 0.53 was obtained. The high-throughput screen was performed by using an automatic liquid handling (Freedom EVO, Tecan), filling black 384-well plates with 15 μL of 5 μM protein in 20 mM Tris (pH 7.5), 150 mM NaCl, and 10% glycerol, and then by adding the library of compounds at a final concentration of 10 μM. Fluorescence was measured immediately after compound addition. The library used was the Spectrum Collection (Microsource Discovery System, Inc.), composed of 2560 compounds, of whom 60% are clinically used drugs, 25% natural products, and 15% other bioactive molecules. The Z-score was calculated as (X – μp)/σp, where X is the fluorescence intensity of the protein. Candidate molecules were considered all of the ones that were under the threshold of Z = −3, while all of the ones over that value were discarded."}}, "note": "Entries after “also recorded” stand apart in the source; their conditions may differ."}
{"smiles": "O=c1c2ccccc2[se]n1-c1ccccc1", "note": "[Compound 1, 2-phenyl-1,2-benzisoselenazol-3(2H)-one]", "values": [{"measurement": "Stability of methylated mRNAs (in words)", "setting": "[1]", "value": "increase in mRNA stability; also recorded: increased the stability of methylated genes"}, {"measurement": "ΔTagg of YTHDF1 (CETSA)", "setting": "YTHDF1 in HEK293T cells", "value": 3.48, "unit": "°C"}, {"measurement": "Expression level of the proteins of the epitranscriptome apparatus (in words)", "setting": "[2]", "value": "No changes were observed"}, {"measurement": "Mean(FI.z-score)", "setting": "YTHDF1 domain", "value": -3.819}]}
